Values quoted from earlier work in patent US20200246414A1, “COMPOSITIONS AND METHODS FOR THE TREATMENT OF CONSTIPATION AND OTHER AILMENTS OF THE GASTROINTESTINAL SYSTEM” (K.L.R.M., LLC, priority 2019, published 2020).

Test system: isolated gastric cells
Conditions: suspension of isolated gastric cells

SMILES	mucus secretion / mucus release
CC(=O)N[C@H](C(=O)O)C(C)(C)SN=O (racemic) [S-nitroso-N-acetylpenicillamine]	stimulated mucus secretion
CCCC(=O)Nc1nc2c(ncn2C2O[C@H]3COP(=O)(O)O[C@@H]3[C@@H]2OC(=O)CCC)c(=O)[nH]1 (stereo partly shown) [Dibutyryl cyclic GMP]	increased the mucus release
CCCOc1ccccc1-c1nc2[nH]nnc2c(=O)[nH]1 [M and B 22948]	increased the mucus release
O=[N+]([O-])O[C@H]1CO[C@H]2[C@@H]1OC[C@H]2O[N+](=O)[O-] [isosorbide dinitrate]	stimulated mucus secretion
